In patent US4870002A, “Method of prevention of oxidative injury to cells” (priority 1985, dated 1989):

Tested on: L5178Y murine lymphosarcoma cells
Assay: Growth curve after gamma irradiation (final/initial cell density)
Format: cell-based
Experimental: The cell density in a mass culture of thymidine hypoxanthine methotrexate glycine/thymidine hypoxanthine glycine (THMG/THG) treated L5178Y cells was determined by Coulter counter and the cells were diluted with fresh warm F10p medium to bring the cell density for treatment to 600,000 cells/ml. Volumes of 10 ml of cell suspension were distributed into three T-25 flasks, and 0.05 ml volumes of solutions of 3-aminotyrosine, as well as a 0.05 ml of distilled water used as a control, to provide a ratio of 5 microliters per 1 ml of cell suspension (a 1:200 dilution) in each flask. In these experiments, the cells were treated with chemical under reduced lighting, but not as totally light sensitive.
The cells were then reincubated for 10 minutes at 37° C. The flasks were then placed simultaneously in the chamber of the GammaCell 40 irradiator at room temperature. The dose rate for the Cesium-137 exposure was 121.6 rads/min. It has been determined that the temperature of water in a T-25 flask originally at 37° C. placed in the irradiation chamber decreases during an 8 min period to approximately 30° C. Flasks were removed after exposure of 0, 250 rads (2.5 Gy), 500 rads (5.0 Gy), and 1000 rads (10 Gy).
After the irradiation, the cells were centrifuged and the supernatant discarded. The cells were resuspended in F10p medium, and again centrifuged. The washing process was repeated and the cells were resuspended in 10 ml of complete medium and counted.
A growth curve study was performed in duplicate by initiating flasks with 60 ml of cell suspension at 20,000 cells per ml. The cells were incubated at 37° C. with continued rotation in 250 ml plastic Erlenmeyer flasks. The cell density was determined by Coulter counter on a daily basis over a 72 hour period.
THMG/THG treated L5178Y cells were mass cultured and the cell density determined. Aliquots of the cell suspension with enough cells to give 300,000 cells per ml in 60 ml (1.8×10^7 cells) were distributed into three 50 ml centrifuge tubes, and after centrifugation, the original growth medium was discarded. The cells were resuspended in GIBCO custom formulation medium which had been prepared without phenol red. The cells were then washed one more time by centrifugation and resuspended again in 10 ml of the phenol red-free medium. These 10 ml suspensions of cells containing 1.8×10^7 cells were then transferred into three flasks already containing 50 ml of phenol red-free medium, distilled water, and either 100 nanomoles/ml or 2 micromoles/ml solutions of 3-aminotyrosine. The exposure system was treated as light sensitive (i.e., procedures were performed under gold light or reduced lighting). The cells were then incubated in the dark at 37° C. for 16 hours. Immediately prior to the end of the 16 hours, the cell density was determined by Coulter counter.
At 16 hours, the cells were irradiated at 0, 250, 500, and 1000 rads as described above in the GammaCell irradiator at room temperature. Immediately after irradiation was completed, the cells were centrifuged, washed twice with F10p, and resuspended in 10 ml of F10p. The cell density was again determined by Coulter counter. Growth curve determinations with initial seeding at 20,000 cells per ml were performed for 72 hours as described above. Cell survival assay by soft agar colony formation was performed as described above, using 0.22% BBL agar (BBL Microbiology Systems) in place of the DIFCO agar previously employed. After 11 days incubation at 37° C., colonies were counted and cell survival was determined.

For Nc1cc(C[C@H](N)C(=O)O)ccc1O [3-aminotyrosine, 3-amino-L-tyrosine], which “Final Cell Density/Initial Cell Density” value (Sixteen hour incubation, 0 rads, 2 micromoles/ml) is on record?
The value was 71.4.

And the “Final Cell Density/Initial Cell Density” value (Sixteen hour incubation, 0 rads, 100 nanomoles/ml)?
Its value is 83.3.

What about the “Final Cell Density/Initial Cell Density” value (Sixteen hour incubation, 250 rads, 2 micromoles/ml) of the same molecule?
Its value is 34.6.

What about the “Final Cell Density/Initial Cell Density” value (Sixteen hour incubation, 250 rads, 100 nanomoles/ml) of the same molecule?
The value was 50.5.

And the “Final Cell Density/Initial Cell Density” value (Sixteen hour incubation, 500 rads, 2 micromoles/ml)?
Its value is 6.1.

What about the “Final Cell Density/Initial Cell Density” value (Sixteen hour incubation, 500 rads, 100 nanomoles/ml) of the same molecule?
Its value is 5.3.

What about the “Final Cell Density/Initial Cell Density” value (Sixteen hour incubation, 1000 rads, 2 micromoles/ml) of the same molecule?
The value was 1.1.

And the “Final Cell Density/Initial Cell Density” value (Sixteen hour incubation, 1000 rads, 100 nanomoles/ml)?
The value was 1.3.

And the “Final Cell Density/Initial Cell Density” value (Zero hour incubation, 0 rads, 2 micromoles/ml)?
The value was 25.0.

What about the “Final Cell Density/Initial Cell Density” value (Zero hour incubation, 0 rads, 100 nanomoles/ml) of the same molecule?
The value was 20.0.

What about the “Final Cell Density/Initial Cell Density” value (Zero hour incubation, 250 rads, 2 micromoles/ml) of the same molecule?
The value was 15.9.

What about the “Final Cell Density/Initial Cell Density” value (Zero hour incubation, 250 rads, 100 nanomoles/ml) of the same molecule?
Its value is 14.1.

What about the “Final Cell Density/Initial Cell Density” value (Zero hour incubation, 500 rads, 2 micromoles/ml) of the same molecule?
Its value is 7.7.

And the “Final Cell Density/Initial Cell Density” value (Zero hour incubation, 500 rads, 100 nanomoles/ml)?
The value was 7.7.

And the “Final Cell Density/Initial Cell Density” value (Zero hour incubation, 1000 rads, 2 micromoles/ml)?
Its value is 2.2.

And the “Final Cell Density/Initial Cell Density” value (Zero hour incubation, 1000 rads, 100 nanomoles/ml)?
Its value is 2.2.
